Here are results for two compounds from patent US20220267288A1, “CARDIAC THERAPEUTIC” (priority 2019, published 2022).

Data set [1] can be described thus: Metabolic stability (substrate depletion) with HLM. Type of data set: in vitro ADME, human. The note with it: for elimination rate constant k by HLM / half-life at 1 μM: 1 μM substrate, HLM 0.5 mg/mL; for half-life at 1 μM / microsomal CLint at 1 μM: human, pooled human liver microsomes, pH 7.4; for half-life at 1 μM: read-out: T1/2 by HLM; for microsomal CLint at 1 μM: substrate depletion, read-out: Intrinsic clearance, CLint HLM. The procedure: The metabolic stability experiments were performed to derive intrinsic clearance (CLint) values via the substrate depletion method. […] NADPH A was subsequently added to initiate the reaction. […] The reaction mixtures were incubated at 37° C. with gentle agitation. At the respective time points (0-60 min), 80 μL of the reaction mixture was quenched using an equal volume of ice-cold ACN with 1 μM tamoxifen as internal standard (IS). The samples were then centrifuged at 3220 g at 4° C. for 30 min before transferring the supernatant to a 96-well plate for liquid chromatography-tandem mass spectrometry (LC-MS/MS) analysis.
The mean of triplicate peak area ratios for each compound was normalized to that of the same compound at the 0 min time point to obtain the percentage of substrate remaining at each time point. This was plotted against incubation time for each compound and the data was then fitted to a one-phase decay model using GraphPad Prism software (version 8.02; GraphPad Inc., San Diego, Calif.) to obtain an estimation for the elimination rate constant (k). CLint was then calculated based on equation 3:
In equation 3, k=elimination rate constant (min^−1); V=volume of incubation mixture (mL); P=amount of protein in mixture (mg).
On the technique in general: Liver microsomes are vesicles of endoplasmic reticulum, rich in cytochrome P450 enzymes.

In a further data set the target is T1, CYP3A5 (Homo sapiens, UniProt P20815).
T1 construct: purchased BD Gentest (Woburn, Mass.)
T1 sequence (P20815 whole entry): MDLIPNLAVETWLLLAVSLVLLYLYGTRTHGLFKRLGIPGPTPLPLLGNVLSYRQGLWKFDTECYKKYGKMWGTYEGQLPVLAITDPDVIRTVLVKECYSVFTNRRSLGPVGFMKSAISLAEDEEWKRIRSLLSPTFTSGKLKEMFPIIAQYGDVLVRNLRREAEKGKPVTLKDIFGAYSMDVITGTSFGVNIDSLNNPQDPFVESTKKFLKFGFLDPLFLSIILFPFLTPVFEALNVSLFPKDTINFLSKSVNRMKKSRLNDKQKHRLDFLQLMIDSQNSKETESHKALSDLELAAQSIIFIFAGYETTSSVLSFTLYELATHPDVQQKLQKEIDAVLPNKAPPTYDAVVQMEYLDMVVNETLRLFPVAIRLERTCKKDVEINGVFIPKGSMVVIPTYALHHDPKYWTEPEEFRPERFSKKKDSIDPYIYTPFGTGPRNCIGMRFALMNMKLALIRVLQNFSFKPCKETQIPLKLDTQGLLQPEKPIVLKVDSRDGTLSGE
Description: Time- and concentration-dependent inactivation of CYP3A5, rivaroxaban probe. Type of data set: in vitro ADME. Conditions: recombinant CYP3A5, pH 7.4, probe rivaroxaban (50 μM), in vitro data obtained, read-out: Mechanism-based inactivation KI CYP3A5. As for the experimental part: Incubations were conducted in triplicates in 96-well plates. Primary incubation mixtures comprising various concentrations of inhibitor (0-20 μM) were pre-incubated at 37° C. for 3 min with CYP3A4 or CYP3A5 (20 pmol/mL) and NADPH B in potassium phosphate buffer (100 mM, pH 7.4). To initiate the enzymatic reaction, 5 μL NADPH A was added to the primary incubation. The final primary incubation mixture volume was 100 μL and contained <1% v/v organic solvent. At different pre-incubation time points (3, 8, 15, 22, 30, and 45 min) after the addition of NADPH A, 5 μL aliquots of the primary incubation were transferred to 95 μL of the secondary incubation containing 50 μM rivaroxaban, the NADPH A and B, and potassium phosphate buffer (100 mM, pH 7.4) to yield a 20-fold dilution. The secondary incubation mixtures were incubated at 37° C. for 2 h with CYP3A4 or CYP3A5 before 80 μL aliquots were removed and quenched with an equal volume of ice-cold ACN containing 4 μM dexamethasone as IS. The samples were then centrifuged at 3220 g at 4° C. for 30 min before transferring the supernatant to a 96-well plate for liquid chromatography-tandem mass spectrometry (LC-MS/MS) analysis. The main rivaroxaban metabolite, morpholinone hydroxylated metabolite, was quantified using LC-MS/MS analysis. […]

The target in data set [2] is T2, CYP2J2 (Homo sapiens, UniProt P51589).
T2 sequence (P51589 1-502): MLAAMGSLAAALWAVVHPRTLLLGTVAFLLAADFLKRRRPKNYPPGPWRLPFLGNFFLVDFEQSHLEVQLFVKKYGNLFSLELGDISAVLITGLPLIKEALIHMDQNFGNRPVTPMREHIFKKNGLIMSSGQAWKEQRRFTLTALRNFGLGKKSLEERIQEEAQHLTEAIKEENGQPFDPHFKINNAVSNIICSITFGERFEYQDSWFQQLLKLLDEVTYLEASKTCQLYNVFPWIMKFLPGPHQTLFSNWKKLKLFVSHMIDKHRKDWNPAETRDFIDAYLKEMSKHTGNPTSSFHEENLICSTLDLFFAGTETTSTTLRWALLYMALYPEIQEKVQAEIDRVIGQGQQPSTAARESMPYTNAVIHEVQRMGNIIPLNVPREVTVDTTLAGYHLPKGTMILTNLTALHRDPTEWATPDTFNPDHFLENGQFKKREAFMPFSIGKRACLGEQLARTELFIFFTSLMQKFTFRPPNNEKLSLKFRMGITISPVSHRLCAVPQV
Description: Inhibition of CYP2J2-mediated astemizole metabolism in hiPSC-CM. Type of data set: cell-based. Conditions: 2 μM drug co-incubated with 1 μM astemizole. Further details: endogenous in cells; host or cells: hiPSC-CM (from human foreskin fibroblasts).
Description: HiPSC-CM were seeded at a density 100,000 cell/well in a 12-well plate and differentiated for 30 days. […] The cells were then washed with 1×PBS twice and dislodged using Accutase® cell detachment solution. The cells were then pelleted at 2000 g for 10 min at 4° C. The supernatant was discarded and the pellets were resuspended in 100 μL of ice-cold ACN with 0.1 μM buspirone as an internal standard. The cells were sonicated for 15 min on ice to bring about complete cell lysis. The lysate was centrifuged at 10,000×g for 15 min at 4° C. The supernatant was collected and analyzed using LC/MS/MS.
The LC/MS/MS system consisted of an Agilent 1290 Infinity ultra-high pressure liquid chromatography (UPLC) system (Agilent Technologies Inc., Santa Clara, Calif.) interfaced with the AB SCIEX QTRAP® 5500 tandem mass spectrometry (MS/MS) system (AB SCIEX, Framingham, Mass.). The LC/MS/MS system was controlled by Analyst 1.4.2 software (Applied Biosystems) which performed all chromatographic peak integration. The ACQUITY UPLC BEH C18 column, 1.7 μM, 2.1×50 mm (Waters, Milford, Mass.), was used to achieve chromatographic separation. The temperatures of the column and samples were maintained at 45° C. and 4° C. respectively. The mobile phases were 0.2% acetic acid in 5 mM ammonium acetate (solvent A) and 0.2% acetic acid in ACN (solvent B). They were delivered at a flow rate of 0.6 mL/min. […]

The target in data set [3] is T2, CYP2J2. Also on record: endogenous in cells; host or cells: hiPSC-CM (from human foreskin fibroblasts). Conditions: PBPK parameter; read-out: Reversible inhibition Ki CYP2J2; cited from earlier work.

On to `CCCCc1oc2ccc(NS(C)(=O)=O)cc2c1C(=O)c1ccc(OCCCN(CCCC)CCCC)cc1.Cl` [Dronedarone], for which, in data set [1], the “elimination rate constant k by HLM” value worked out at 0.06446 min⁻¹, the half-life at 1 μM amounted to 10.8 min and the microsomal CLint at 1 μM was determined as 129 µL/min/mg. For the same compound, at CYP3A5, the KI (inactivation) stood at 5370 nM. Besides, the “inhibition of CYP2J2 in hiPSC-CM” value at CYP2J2 [2] (24 h) stood at 98%. In addition, on CYP2J2 [3], the inhibitory constant (Ki) (usually a dissociation constant, usually derived from enzyme kinetics or from competition with a known ligand) was 930 nM.

As for `Cl.[2H]c1c(NS(C)(=O)=O)c([2H])c2c(C(=O)c3ccc(OCCCN(CCCC)CCCC)cc3)c(CCCC)oc2c1[2H]` [Poyendarone, Methanesulfonamide, N-(2-butyl-3-(4-(3-(dibutylamino)propoxy)benzoyl)-1-benzo(4,6,7-d3)-furan-5-yl)hydrochloride], in data set [1], the “elimination rate constant k by HLM” value came out at 0.06472 min⁻¹, the half-life at 1 μM is 10.7 min and the microsomal CLint at 1 μM turned out to be 129 µL/min/mg. Further, the KI (inactivation) on CYP3A5 was 2910 nM. Further, the inhibition (in general, the drop in the measured response relative to a control, in per cent) at 24 h, 2 μM at CYP2J2 [2] (human, hiPSC-derived cardiomyocytes (hiPSC-CM), probe astemizole (1 μM)) was 50%. Moreover, the Ki at CYP2J2 [3] is 930 nM.
